Source: PubChem BioAssay AID1996
In brackets after ≈: the same amount, converted by molar mass.

details: buffer; pH 7.4; 200.0 µM

SMILES | solubility kinetic [µg/mL]
COc1ccc(NC2CC(=O)N(c3cc([N+](=O)[O-])ccc3C)C2=O)cc1 (centres undefined) | > 53.3
Cl.N=c1ccn(Cc2cccc(F)c2)cc1 | 30.8
O=C(Nc1ccc(F)cc1)c1cncs1 | > 33.3
COC(=O)c1sc(-c2cccs2)cc1NC(=O)/C=C/C(=O)O | > 50.6
CN(CC(=O)Nc1ccc(SC(F)F)cc1)C1CCCCC1 | 32.2 (≈ 98 µM)
O=C(NCC1CCCCC1)c1ccc(Cl)nc1 | > 37.9
COc1ccc(S(=O)(=O)N2CCCCCC2)cc1C(=O)NCc1ccco1 | 46.5 (≈ 118 µM)
COc1ccc2c(c1OC)C(=O)N(c1cccc(NC(C)=O)c1)C2 | 46.6 (≈ 143 µM)
O=C(NCCNC1CCC(c2ccccc2)CC1)c1ccc(F)cc1 (centres undefined) | 35.4 (≈ 104 µM)
O=C(NCc1ccccn1)Nc1cccc([N+](=O)[O-])c1 | > 40.8
CN(C)C(=O)C1CC(=O)OC12CCCCC2 (centres undefined) | 28.2 (≈ 125 µM)
O=C(CCl)NCc1cc(-c2ccc(Cl)cc2)no1 | 13.2 (≈ 46.3 µM)
NC(=S)Cc1ccccc1Cl | 25.2 (≈ 136 µM)
CCN(CC)CCN=Cc1c(O)n(Cc2ccco2)c(=O)[nH]c1=O | > 50.2
COc1ccc(N2CCN(CC(=O)NC(=O)NC(C)(C)C)CC2)cc1 | 51.3 (≈ 147 µM)
Cc1occc1C(=O)N(C)Cc1nc(-c2ccccc2)no1 | 40.9 (≈ 138 µM)
Cc1ccc(NC(=S)NC(=O)C2CC2)c(C)c1 | 5.9 (≈ 23.8 µM)
CC[N+](CC)(CC)CC(=O)Nc1c(C)cccc1C.[Br-] | > 51.5
CN1C(=O)[C@H](Cc2ccc([N+](=O)[O-])cc2)NC1=S | 28.1 (≈ 106 µM)
O=C(O)c1ccc(Cn2ccc3ccccc32)o1 | > 36.2
O=C(CSCc1ccc(F)cc1)NCc1ccc(F)cc1 | 44 (≈ 143 µM)
O=C(CS(=O)CC(=O)Nc1cccnc1)Nc1ccc(F)cc1 (centres undefined) | > 50.3
Cc1ccc(OCCc2csc(N)n2)cc1 | 34.8 (≈ 149 µM)
CC(C)N1C(=O)c2ccccc2C1C(=O)NCCc1ccccc1 (centres undefined) | 48 (≈ 149 µM)

SMILES | solubility kinetic [µg/mL]
COc1cc(F)ccc1S(=O)(=O)NCc1cccnc1 | > 44.4
Cc1cnc(C(=O)OCc2nc3ccccc3o2)cn1 | > 40.4
COc1ccccc1CC(=O)N1CCN(c2cccc(Cl)c2)CC1 | 22 (≈ 63.8 µM)
CCN1CCN(C(=O)CSc2ccc(C)cc2)CC1 | 41.2 (≈ 148 µM)
Cc1ccccc1C(=O)NNC(=O)c1cccn1C | > 38.6
COc1ccc(NC(=O)CS(=O)(=O)c2ccccc2)cc1 | > 45.8
Cc1cc(C)n2nc(C(=O)OCC(=O)Nc3ccc(C)c(S(=O)(=O)N4CCOCC4)c3)nc2n1 | > 73.3
O=C(COc1ccc([N+](=O)[O-])cc1)NCCc1nc2ccccc2[nH]1 | 8.5 (≈ 25 µM)
Cc1cccc(S(=O)(=O)Nc2ccncc2)c1 | 28.1 (≈ 113 µM)
COc1ccc(C(=O)CN2CCN(c3ccc(F)cc3)CC2)cc1 | 13 (≈ 39.6 µM)
O=C(/C=C/c1cccc([N+](=O)[O-])c1)N1CC[C@@]2(O)CCCC[C@H]2C1 | > 49.6
O=C(COC(=O)c1ccccc1Br)NC1CCCC1 | > 48.9
O=C(/C=C/c1ccc(Cl)c(Cl)c1)N1CCOCC1 | 35.5 (≈ 124 µM)
CCOc1ccc(S(=O)(=O)NC(=O)c2ccccc2)cc1 | > 45.8
Cc1cc(-c2nc3ccccc3c(=O)o2)ccc1[N+](=O)[O-] | < 0.3
Fc1cccc(F)c1/C=N/N1CCOCC1 | > 33.9
O=C(/C=C/c1ccccc1)NC(=S)Nc1ccccc1 | < 0.3
COc1cc(NC(=O)CCN2CCN(CCO)CC2)cc(OC)c1 | 44.5 (≈ 132 µM)
CCc1ccc(C(=O)COC(=O)C2=NN(c3ccccc3)C(=O)CC2)cc1 | > 54.7
CC(=O)Nc1ccc(S(=O)(=O)N(C)CC(=O)NNC(=O)Cc2nc3ccccc3n2C)cc1 | > 70.9
N#Cc1ccc(-c2ccc(OCC(O)CN3CCCCC3)cc2)cc1 (centres undefined) | 42.4 (≈ 126 µM)
O=C(NCc1ccccc1)N1CCOc2ccccc21 | 31.3 (≈ 117 µM)
COc1ccc(NC(=O)C2(c3ccccc3)CCCC2)cc1 | 2.6 (≈ 8.8 µM)
CCCNC(=O)c1csc(Nc2cccc3ccccc23)n1 | 17.8 (≈ 57.2 µM)

SMILES | solubility kinetic [µg/mL]
CCOc1ccc(NC(=O)COc2ccc(S(=O)(=O)N3CCOCC3)cc2)cc1 | 2.9 (≈ 6.9 µM)
Cc1cc(Br)ccc1OCC(=O)NC1CCCC1 | 31.4 (≈ 101 µM)
CC(NC(=O)COC(=O)C12CC3CC(CC(Br)(C3)C1)C2)c1ccccc1 (centres undefined) | 20.6 (≈ 49 µM)
NC(=O)Nc1ccc(C(=O)OCC(=O)NC2CCCc3ccccc32)cc1 (centres undefined) | 11 (≈ 29.9 µM)
Cc1ccc(-c2csc(-c3cc(C)on3)n2)cc1 | < 0.3
Cc1ccc(NC(=O)CCN2C(=O)NC(C)(C)C2=O)cc1F | > 46.1
Cc1c(C(=O)NC2CCCCC2C)oc2ccccc12 (centres undefined) | 1.7 (≈ 6.26 µM)
O=C(c1ccco1)c1cn(CC(=O)N2CCCCCC2)c2ccccc12 | 1.4 (≈ 4 µM)
CC(SCC(=O)Nc1ccccc1Br)c1nc2ccccc2c(=O)[nH]1 (centres undefined) | 3.2 (≈ 7.65 µM)
CC(O)c1ccc(OCCN(C)c2ccccn2)cc1 (centres undefined) | > 40.9
COc1ccc(N2CC(C(=O)Nc3cc(C)ccn3)CC2=O)cc1 (centres undefined) | > 48.8
O=[N+]([O-])c1cccc2ccc(N3CCOCC3)nc12 | 38.4 (≈ 148 µM)
COc1ccc(NS(=O)(=O)c2ccc3[nH]c(=O)[nH]c3c2)cc1 | 12.7 (≈ 39.8 µM)
Cc1ncc([N+](=O)[O-])n1CCO | > 25.7
C=CCNc1nc(N)c([N+](=O)[O-])c(NCc2ccccc2)n1 | 0.7 (≈ 2.33 µM)
S=c1sc2c(Cl)ncnc2n1-c1ccccc1 | 8.3 (≈ 29.7 µM)
Cc1cccc(N2CCN(C(=O)N3CCCCC3)CC2)c1C | 26.3 (≈ 87.2 µM)
CC(=O)Nc1ccc(/C=N/N2C(C)CCCC2C)cc1 (centres undefined) | > 41
O=[N+]([O-])/C(C(Cl)=C(Cl)Cl)=C1\Nc2ccccc2O1 | > 46.1
Cc1ccc(NC(=O)CC(C)CC(=O)NCc2ccccc2)cc1Cl (centres undefined) | < 0.4
Cc1ccc(C2C(C(=O)c3ccco3)=C(O)C(=O)N2c2ncccn2)cc1 (centres undefined) | > 54.2
COc1ccc(OC)c(COC(=O)c2cccc(S(=O)(=O)N3CCCCC3)c2)c1 | 10.1 (≈ 24.1 µM)
COc1ccc(C(=O)CCC(C)(C)[N+](=O)[O-])cc1 | 31.8 (≈ 127 µM)
CSc1nccc(-c2sc(SC)c(C#N)c2-c2ccccc2)n1 | < 0.3

SMILES | solubility kinetic [µg/mL]
Cn1ccnc1C(=O)c1ccc(S(=O)(=O)N2CCCC2)cc1 | > 47.9
O=C(O)c1cc([N+](=O)[O-])ccc1NCc1ccccc1Cl | 45 (≈ 147 µM)
Cc1cc(C)c(S(=O)(=O)Nc2ncccc2C)c(C)c1 | 2.1 (≈ 7.23 µM)
O=C(N1CCOCC1)N1CCc2ccccc21 | 34.8 (≈ 150 µM)
COc1ccc(NS(=O)(=O)c2cn(C)c(=O)n(C)c2=O)c(OC)c1 | > 53.3
CCOC(=O)Cc1csc(NC(=O)c2ccc(Cl)s2)n1 | 13.1 (≈ 39.6 µM)
CCOc1ccc(C(C)NC(=S)NCc2ccc(F)cc2)cc1 (centres undefined) | 2.8 (≈ 8.42 µM)
COc1ccc2[nH]c(C(=O)Nc3ccccc3Cl)cc2c1 | < 0.3
N/C(=N\OC(=O)Nc1cccc(C(F)(F)F)c1)c1ccno1 | 18.7 (≈ 59.5 µM)
CCOC(=O)c1c(-c2ccc(OC)cc2)cn2ccccc12 | < 0.6
COc1ccc(/C=N/NC(N)=S)cc1 | > 31.4
N#Cc1ccc(C(=O)NC2=NCCS2)cc1 | 21.8 (≈ 94.3 µM)
O=c1[nH]c2ccccc2[n+]([O-])c1-c1ccccc1 | > 35.7
Cc1c(Cl)cccc1NC(=O)Cn1c(-c2ccc(F)cc2)noc1=O | 4 (≈ 11.1 µM)
O=C(Cc1ccccc1F)Nc1cccc(S(=O)(=O)N2CCOCC2)c1 | > 56.8
N#C/C(=C\c1cn(CC(=O)O)c2ccccc12)C(=O)NCc1ccccc1 | 48.9 (≈ 136 µM)
Cc1nn(CCCC(=O)Nc2cccnc2Cl)c(C)c1[N+](=O)[O-] | > 50.7
O=C(CSc1nccc(=O)[nH]1)Nc1ccc2c(c1)OCCO2 | 40.8 (≈ 128 µM)
Cc1cc(C(=O)NC2CCCC(C)C2C)c2ccccc2n1 (centres undefined) | 18.9 (≈ 63.8 µM)
Cn1cc2cc(NC(N)=S)ccc2n1 | > 30.9
COc1cc2c(cc1OC)CN(CC(=O)Nc1cccc([N+](=O)[O-])c1)CC2 | 14.9 (≈ 40.1 µM)
CC(C)(C)C1CCC(C(=O)Nc2cccnc2)CC1 (centres undefined) | 6.3 (≈ 24.2 µM)
CCCOc1cccc(C(=O)NCCNC(=O)c2ccco2)c1 | > 47.5
O=C(O)CNC(=O)/C=C/c1c(Cl)cccc1Cl | > 41.1

SMILES | solubility kinetic [µg/mL]
Nc1cccc(C(=O)Nc2cccc3ncccc23)c1 | > 39.5
O=C(/C=C/c1ccccc1)Nc1cccnc1Cl | 38.8 (≈ 150 µM)
COc1ccc(NC(=O)[C@@H]2CCCN2S(=O)(=O)c2ccc(Cl)cc2)cc1 | > 59.2
CCc1cccc(C)c1NC(=O)CC(C)(C)CC(=O)O | > 41.6
CC(=O)c1cccc(OCC(O)CNCCOc2ccc(C)cc2)c1 (centres undefined) | 47.6 (≈ 139 µM)
CCOc1ccccc1NC(=O)C1CCCN(S(C)(=O)=O)C1 (centres undefined) | > 49
Cl.O=C(CCN1CCOCC1)NC12CC3CC(CC(C3)C1)C2 | 48.9
CC(=O)c1ccc(N2CCN(C(=O)Nc3ccc(C)cc3)CC2)cc1 | 1.4 (≈ 4.15 µM)
COc1cc(/C=C/C(=O)O)cc(S(=O)(=O)Nc2ccccc2C(=O)NCc2ccco2)c1OC | > 73
Cc1ccccc1N=C(NO)c1cccnc1 | > 34.1
COc1ccc(NC(=O)CCC(=O)N/N=C/c2cccnc2)cc1 | > 49
Cc1cc(F)ccc1NS(=O)(=O)c1cccc2nsnc12 | 44.2 (≈ 137 µM)
O=C(c1ccccc1)N1CCCC(C(=O)N2CCN(c3ccccc3)CC2)C1 (centres undefined) | 46.8 (≈ 124 µM)
CSCCC(NC(=O)C1CCCC1)c1nnc2ccccn12 (centres undefined) | > 47.8
COC(=O)c1ccccc1NC(=O)c1cc(-c2ccco2)on1 | 0.6 (≈ 1.92 µM)
O=C(c1ccc(Cl)c(S(=O)(=O)N2CCOCC2)c1)N1CCCC1 | > 53.8
Cc1ccc(NC(=S)NCc2ccc(F)cc2)c(C)c1 | 36.2 (≈ 126 µM)
CC(OC(=O)c1cccc(Cl)c1)C(=O)NC1CCCCC1C (centres undefined) | 8.7 (≈ 26.9 µM)
CC(=O)c1ccc(NC(=O)c2cccc(NC(=O)c3ccccc3)c2)cc1 | 0.7 (≈ 1.95 µM)
CCc1nc2ccccc2c(C(=O)NCc2ccc(OC)cc2)c1C | 47.9 (≈ 143 µM)
COc1ccc(/C=C/C(=O)NC2=NCCS2)cc1OC | 1.5 (≈ 5.13 µM)
O=S(=O)(Nc1cc(Cl)cc(Cl)c1)N1CCOCC1 | > 46.7
N#Cc1ccccc1NC(=O)COC(=O)c1ccc(F)cc1F | 11.1 (≈ 35.1 µM)
